Measured values: patent US20070270418A1, “Inhibitors of P38 and Methods of Using the Same” (priority 2003, published 2007)

molecular target: T1, p38α (Homo sapiens, UniProt Q16539); test: p38 MAP Kinase assay, ATF2 phosphorylation (ELISA); format: biochemical; conditions: 40 μM ATP
T1 construct: p38 MAP Kinases are recombinant human full-length proteins with an amino-terminal GST fusion; GST (N); purchased Upstate (Charlottesville, Va.); host or cells: E. coli
Text: Compounds of the invention are screened for the ability to inhibit ATF2 phosphorylation by p38 MAP Kinase in vitro. The ability of compounds to inhibit ATF2 phosphorylation in this in vitro assay is correlated with the inhibition of p38 MAP Kinase and TNFα expression in vivo, and is therefore an indicator of potential in vivo therapeutic activity (Raingeaud, J., et al, J. Biol. Chem., 270: 7420-7426, 1995, Brinkman, M. N., et al, J. Bil. Chem. 274: 30882-30886, 1999 and Fuchs, S. Y. et al, J. Biol. Chem. 275: 12560-12564, 2000).
All kinases and the substrate ATF2 are acquired from Upstate (Charlottesville, Va.). p38 MAP Kinases are recombinant human full-length proteins with an amino-terminal GST fusion, expressed in and purified from E. coli. ATF2 is a GST fusion protein containing amino acids 19-96 of human ATF2 expressed in E. coli. All proteins were aliquoted and stored at −80° C.
p38 MAP Kinase assays are performed using an assay buffer containing 25 mM HEPES, pH 7.5, 10 mM MgCl2, 2 mM DTT, 20 mM β-glycerophosphate, 0.1 mM Na3VO4, 40 μM ATP and 1.25 μM of ATF2, together with 6 ng of p38α protein, 12 ng p38β protein, 1.5 ng p38γ, or 0.4 ng JNK2α2. Compounds are serially diluted in DMSO and 2 μL of test compound at 25× final concentration is used. The vehicle control receives DMSO only. Test compounds are pre-incubated with 20 μl of enzyme in kinase buffer (25 mM HEPES, pH 7.5, 10 mM MgCl2, 2 mM DTT, 20 mM 3-glycerophosphate and 0.1 mM Na3VO4) at room temperature for 15 minutes. […] The reactions are incubated for 30 minutes at 37° C. and terminated by the addition of 18 μl of 200 mM EDTA. An ELISA method is used to measure the phosphorylation of ATF2 at Thr 69. High binding 96-well plates (Corning 3369) are coated with 50 μl of kinase reaction for 1 hour at 37° C. The coated plates are washed with 200 μl washing buffer (25 mM Tris HCl, pH 8.3, 192 mM glycine, 0.1% SDS and 0.05% Tween-20) three times. The plates are then washed three times with SuperBlock in TBS (Pierce, 37535). After blocking, plates are incubated with 50 μl of rabbit anti-phospho-ATF2 antibody (Cell Signaling, 9221 L, 1:500) for 30 minutes at 37° C. Plates are washed three times with washing buffer prior to incubation with 50 μl HRP-conjugated goat anti-rabbit antibody (Cell Signaling, 7074, 1:500) for 30 minutes at 37° C. Plates are then washed three times with washing buffer before incubation with 50 μl of Ultra TMB-ELISA (Pierce, 34028) for 8 minutes at room temperature. Finally, 50 μl of phosphoric acid (1 M) is added to stop reactions and plate absorbance is read at 450 nm on a SpectraMax 250 plate reader.

T1 sequence (Q16539 whole entry, the tested form may be a part): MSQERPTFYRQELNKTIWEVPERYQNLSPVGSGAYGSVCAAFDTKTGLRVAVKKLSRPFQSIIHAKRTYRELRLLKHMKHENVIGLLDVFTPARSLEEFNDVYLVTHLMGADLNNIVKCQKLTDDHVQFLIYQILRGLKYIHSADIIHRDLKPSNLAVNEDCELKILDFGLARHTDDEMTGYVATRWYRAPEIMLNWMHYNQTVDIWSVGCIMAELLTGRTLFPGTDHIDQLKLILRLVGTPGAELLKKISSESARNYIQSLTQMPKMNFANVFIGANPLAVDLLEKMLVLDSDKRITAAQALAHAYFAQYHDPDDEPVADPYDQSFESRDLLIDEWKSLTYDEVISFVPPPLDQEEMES

| SMILES | IC50 |
| --- | --- |
| CC(C)[C@@H](CO)Nc1nccc(-c2c(-c3ccc4c(c3)OCCO4)nc3sccn23)n1 [CCIII] | 1410 nM |
| CC(C)[C@@H](CO)Nc1nccc(-c2c(-c3ccc(C(F)(F)F)cc3)nc3sccn23)n1 [CCII] | 924 nM |
| Cc1csc2nc(-c3ccc(F)cc3)c(-c3ccnc(NC(CO)CO)n3)n12 [CCIV] | 10100 nM |
| OCC(CO)Nc1nccc(-c2c(-c3cccc(F)c3)nc3sccn23)n1 [CCVIII] | 971 nM |
| OCC(CO)Nc1nccc(-c2c(-c3ccc(F)c(F)c3)nc3sccn23)n1 [CCVI] | 609 nM |
| Cc1csc2nc(-c3ccc(F)cc3)c(-c3ccnc(N[C@H](CO)C(C)C)n3)n12 [CCV] | 3190 nM |
| Nc1cc(-c2c(-c3ccc(F)cc3)nc3sccn23)nc(NC2CC2)n1 [CCXXIII] | 2080 nM |
| Nc1cc(-c2c(-c3ccc(F)cc3)nc3sccn23)nc(NCC2CC2)n1 [CCXXIV] | 1570 nM |
| CC(C)(CO)CNc1nc(N)cc(-c2c(-c3ccc(F)cc3)nc3sccn23)n1 [CCXXIX] | 1030 nM |
| CCCNc1nc(N)cc(-c2c(-c3ccc(F)cc3)nc3sccn23)n1 [CCXXVII] | 1330 nM |
| CCOCCCNc1nc(N)cc(-c2c(-c3ccc(F)cc3)nc3sccn23)n1 [CCXXVI] | 766 nM |
| C[C@H](O)CNc1nc(N)cc(-c2c(-c3ccc(F)cc3)nc3sccn23)n1 [CCXXV] | 1050 nM |
| Cc1ccc(-c2nc3sccn3c2-c2ccnc(NC(CO)CO)n2)cc1 [CCX] | 558 nM |
| O[C@H]1CCN(c2nccc(-c3c(-c4ccc(F)cc4)nc4occn34)n2)C1 [CII] | 927 nM |
| O[C@@H]1CCN(c2nccc(-c3c(-c4ccc(F)cc4)nc4occn34)n2)C1 [CI] | 1420 nM |
| CCOC(=O)Cc1csc2nc(-c3ccc(F)cc3)c(-c3ccnc(SC)n3)n12 [CLIV] | 1000 nM |
| CCOC(=O)Cc1csc2nc(-c3ccc(F)cc3)c(-c3ccnc(NCc4ccco4)n3)n12 [CLXIII] | 1000 nM |
| CCOC(=O)Cc1csc2nc(-c3ccc(F)cc3)c(-c3ccnc(NCC(C)C)n3)n12 [CLXII] | 1000 nM |
| CCOC(=O)Cc1csc2nc(-c3ccc(F)cc3)c(-c3ccnc(N4CCCCC4)n3)n12 [CLXIV] | 1000 nM |
| CCOC(=O)Cc1csc2nc(-c3ccc(F)cc3)c(-c3ccnc(NCC4CCCCC4)n3)n12 [CLXI] | 1000 nM |
| c1ccc(-c2nc3sccn3c2-c2ccncn2)cc1 [CLXVIII] | 1460 nM |

| SMILES | IC50 |
| --- | --- |
| CC(C)CNC(=O)Cc1csc2nc(-c3ccc(F)cc3)c(-c3ccnc(NCC(C)C)n3)n12 [CLXVII] | 1000 nM |
| O=C(Cc1csc2nc(-c3ccc(F)cc3)c(-c3ccnc(NCC4CCCCC4)n3)n12)NCC1CCCCC1 [CLXVI] | 1000 nM |
| CC(C)[C@@H](Nc1nccc(-c2c(-c3ccc(F)cc3)nc3sccn23)n1)C(=O)OC(C)(C)C [CLXXIII] | 81.4 nM |
| CC(O)CN(CC(C)O)c1nccc(-c2c(-c3ccc(F)cc3)nc3sccn23)n1 (centres unmarked) [CLXXVIII] | 1000 nM |
| OCCN(CCO)c1nccc(-c2c(-c3ccc(F)cc3)nc3sccn23)n1 [CLXXVII] | 793 nM |
| CN(CCO)c1nccc(-c2c(-c3ccc(F)cc3)nc3sccn23)n1 [CLXXVI] | 1000 nM |
| COc1cccc(-c2nc3sccn3c2-c2ccnc(SC)n2)c1 [CLXXV] | 3390 nM |
| OCCN1CCN(c2nccc(-c3c(-c4ccc(F)cc4)nc4sccn34)n2)CC1 [CLXXXIII] | 1000 nM |
| OC1CCN(c2nccc(-c3c(-c4ccc(F)cc4)nc4sccn34)n2)CC1 [CLXXXIV] | 594 nM |
| Cc1cn2c(-c3ccnc(S(C)(=O)=O)n3)c(-c3ccc(F)cc3)nc2s1 [CLXXXVII] | 1850 nM |
| CC[C@H](C)C(Nc1nccc(-c2c(-c3ccc(F)cc3)nc3sccn23)n1)C(=O)OC (some centres unmarked) [CLXX] | 13.4 nM |
| COc1cccc(-c2nc3sccn3c2-c2ccnc(NCCOCCO)n2)c1 [CXCIX] | 428 nM |
| CSc1nccc(-c2c(-c3ccc(F)cc3)nc3sc(C)cn23)n1 [CXCI] | 741 nM |
| COc1cccc(-c2nc3sccn3c2-c2ccnc(NCC(O)CO)n2)c1 (centres unmarked) [CXCVIII] | 649 nM |
| COc1cccc(-c2nc3sccn3c2-c2ccnc(NCC(C)O)n2)c1 (centres unmarked) [CXCVII] | 61.2 nM |
| COc1cccc(-c2nc3sccn3c2-c2ccnc(N[C@H](CO)[C@H](O)c3ccccc3)n2)c1 [CXCVI] | 819 nM |
| COc1cccc(-c2nc3sccn3c2-c2ccnc(NC(C)CO)n2)c1 (centres unmarked) [CXCV] | 44.7 nM |
| COc1ccc(-c2nc3sccn3c2-c2ccnc(SC)n2)cc1 [CXC] | 3040 nM |
| Fc1ccc(-c2nc3sccn3c2-c2ccnc(N3CCOCC3)n2)cc1 [CXLVI] | 129 nM |
| Nc1nccc(-c2c(-c3ccc(F)cc3)nc3occn23)n1 [CXXIX] | 97.4 nM |
| c1ccc(-c2nc3sccn3c2-c2ccnc(N3CCOCC3)n2)cc1 [CXXXIV] | 113 nM |

The next lines start with the values.

| IC50 | SMILES |
| --- | --- |
| 960 nM | Nc1cc(-c2c(-c3ccc(F)cc3)nc3sccn23)nc(NCCc2ccncc2)n1 [CCXXVIII] |
| 2570 nM | Nc1cc(-c2c(-c3ccc(F)cc3)nc3sccn23)nc(NC[C@H](O)c2ccccc2)n1 [CCXXX] |
| 15.6 nM | c1ccc(-c2nc3sccn3c2-c2ccnc(NCc3ccco3)n2)cc1 [CLIII] |
| 6.14 nM | Fc1ccc(-c2nc3sccn3c2-c2ccnc(NCc3cccs3)n2)cc1 [CLII] |
| 91.1 nM | c1ccc(-c2nc3sccn3c2-c2ccnc(NCc3ccccn3)n2)cc1 [CLIX] |
| 21.8 nM | OCCCNc1nccc(-c2c(-c3ccccc3)nc3sccn23)n1 [CLVIII] |
| 5.29 nM | c1ccc(-c2nc3sccn3c2-c2ccnc(NC3CC3)n2)cc1 [CLVII] |
| 58.6 nM | CC(C)(C)OC(=O)CNc1nccc(-c2c(-c3ccc(F)cc3)nc3sccn23)n1 [CLVI] |
| 267 nM | COC(=O)C(Cc1ccccc1)Nc1nccc(-c2c(-c3ccc(F)cc3)nc3sccn23)n1 (centres unmarked) [CLXIX] |
| 1000 nM | O=C(Cc1csc2nc(-c3ccc(F)cc3)c(-c3ccnc(NCc4ccccc4)n3)n12)NCc1ccccc1 [CLXV] |
| 671 nM | CC(C)[C@@H](Nc1nccc(-c2c(-c3ccc(F)cc3)nc3sccn23)n1)C(=O)O [CLXXIV] |
| 192 nM | CC(CO)(CO)Nc1nccc(-c2c(-c3ccc(F)cc3)nc3sccn23)n1 [CLXXIX] |
| 347 nM | CC(C)C[C@H](CO)Nc1nccc(-c2c(-c3ccc(F)cc3)nc3sccn23)n1 [CLXXXII] |
| 87.1 nM | OCC(CO)Nc1nccc(-c2c(-c3ccc(F)cc3)nc3sccn23)n1 [CLXXXV] |
| 1000 nM | CCOC(=O)Cc1csc2nc(-c3ccc(F)cc3)c(-c3ccnc(NCc4ccccc4)n3)n12 [CLX] |
| 213 nM | OCCN(Cc1ccccc1)c1nccc(-c2c(-c3ccc(F)cc3)nc3sccn23)n1 [CXCII] |
| 565 nM | OC[C@@H](Nc1nccc(-c2c(-c3ccc(F)cc3)nc3sccn23)n1)[C@H](O)c1ccccc1 [CXCIV] |
| 8.22 nM | Fc1ccc(-c2nc3sccn3c2-c2ccnc(NCc3ccco3)n2)cc1 [CXLIII] |
| 1.97 nM | CC(C)CNc1nccc(-c2c(-c3ccc(F)cc3)nc3sccn23)n1 [CXLII] |
| 4.92 nM | Fc1ccc(-c2nc3sccn3c2-c2ccnc(NCc3ccccc3)n2)cc1 [CXLI] |
| 65.5 nM | COc1ccc(CNc2nccc(-c3c(-c4ccc(F)cc4)nc4sccn34)n2)cc1 [CXLV] |
| 81.4 nM | COc1ccc(CNc2nccc(-c3c(-c4ccccc4)nc4sccn34)n2)cc1 [CXXXIII] |
| 635 nM | CSc1nccc(-c2c(-c3ccc(F)cc3)nc3sccn23)n1 [CXXXIX, 6-(4-fluorophenyl)-5-(2-methylsulfanyl-pyrimidin-4-yl)-imidazo[2,1-b]thiazole] |
